Like-named read-outs stand apart in the source and are kept apart here.
Columns and labels:
[1] = tested on: normal human skin; settings: topically applied; cited from earlier work
[2] = tested on: cytosol extracts of human keratinocytes; settings: human epidermal cells; specific inhibitors of alcohol metabolism or excess of ethanol
Experimental: We have measured the conversion of retinol to retinoic acid. We have also measured the enzymatic oxidation-reduction of retinal in human epidermal cell extracts in vitro (HPLC analysis of the products obtained by incubation of cytosol extracts with ^3 H-labeled RAL and ROL).
(§1) The HPLC analyses of the retinoids are carried out by the following technique:
(§2) A 100 μl aliquot of the cytosol fraction of keratinocytes is incubated with 600 μM (^3 H) retinol or (^3 H) retinal for 1 hour.
(§3) 5 μl of internal standard solution containing 4-oxoretinoic acid, all-trans-retinoic acid, 13-cis-retinoic acid, retinol and retinal are subsequently added to the reaction medium.
(§4) The radioactive material is then extracted with 3×1 ml of hexane.
(§5) The organic phase is collected and completely evaporated using a stream of nitrogen gas.
(§6) The residue is subsequently taken up in 50 μl of acetonitrile and analysed on an HPLC column.
(§7) The HPLC system consists of a VARIAN 5000 apparatus equipped with an ODS-Ultrasyl reverse-phase column (10 μm, 25×0.4 cm).
(§8) The unlabeled retinoids are detected by their absorbance measured at 340 nm. 600 μl fractions are also collected using a fraction collector, and their radio-activity is measured with a scintillation counter after adding 4 ml of Pico-fluor.

[3] = tested on: protein extract of psoriasis plaques / cytosol extracts of normal human skin; assay type: in vitro ADME
From the text: Furthermore, the Applicant has shown that the protein extract of psoriasis plaques was also capable of converting retinol to retinoic acid, but with a lower activity (0.33+0.07 pmol/h/mg) than differentiated keratinocytes.
These differences in the conversion activity may be attributed to the differences in biological activity of the tissues studied or to their different state of differentiation.

[4] = tested on: rosacea; assay: application in the case of rosacea; assay type: in vivo, human; settings: 0.1% retinal, topical, daily
Experimental: This test was carried out on 10 subjects displaying the clinical signs of rosacea. A topical application containing 0.1% of retinal was used in daily application for 3 months.

[5] = tested on: normal human skin
From the text: This test, carried out on 30 healthy volunteers, was intended to evaluate the existance of a biological effect and the tolerance after topical application of retinal.
Three concentrations, 1.0%, 0.1% and 0.05%, were used, in daily covered applications for at least 15 days and up to 3 months in 10 subjects.

[6] = tested on: seborrheic dermatitis; assay: application in the case of seborrheic dermatitis; assay type: in vivo, human; settings: 0.05% retinal, topical, daily; after treatment for one month
Experimental: This test was carried out on 10 subjects displaying the clinical signs of seborrheic dermatitis.
A topical application containing 0.05% of retinal was used in daily application for one month.

[7] = tested on: human epidermal cell extracts
Experimental: (§9) We have also measured the enzymatic oxidation-reduction of retinal in human epidermal cell extracts in vitro (HPLC analysis of the products obtained by incubation of cytosol extracts with ^3 H-labeled RAL and ROL).
as §1, §2, §3, §4, §5, §6, §7
(§10) The isocratic elution system consists of a mixture of solvents composed of 71% acetonitrile, 23% of ammonium acetate buffer (50 mM, pH 7) and 6% tetrahydrofuran, with a flow rate of 2.4 ml/min.
as §8

[8] = tested on: psoriasis plaques; settings: for regression of the lesion score: with occlusion
Experimental: For this reason, the 1% preparation was used and the effects of a daily application were compared with those of the excipient, in 12 patients.
The application was "open" in 6 cases, and with occlusion in six 6. 11 cases were able to be evaluated (5 with occlusion, 6 open). The effect was measured by standard methods (erythema 0-3, squama 0-3, infiltration 0-3), comparing the plaques treated with retinal with the symmetrical plaques treated with the excipients. Photographs were taken at each inspection.

[9] = tested on: extracts of normal human skin and of the psoriasis plaque
Experimental: as §9, §1, §2, §3, §4, §5, §6, §7, §10, §8

CC1=C(/C=C/C(C)=C/C=C/C(C)=C/C(=O)O)C(C)(C)CCC1 [retinoic acid]
topical concentration at which dermatitis caused by the retinoids is observed [1]: ≥ 0.01%

CCO [ethanol]
effect on the production of retinoic acid from retinol [2]: not affected

CCN(CC)C(=S)SSC(=S)N(CC)CC [disulfiram]
effect on the production of retinoic acid from retinol [2]: not affected

CC1=C(/C=C/C(C)=C/C=C/C(C)=C/CO)C(C)(C)CCC1 [retinol]
activity of converting retinol to retinoic acid [3]: 0.33+0.07 pmol/h/mg
conversion of retinol to retinoic acid [3]: no measurable degree of conversion

CC1=C(/C=C/C(C)=C/C=C/C(C)=C/C=O)C(C)(C)CCC1 [retinal]
subjects left with almost no sign of characteristic erythrosis of rosacea ([4]; after treatment for 3 months): 70%
cases with a substantial improvement in the rosacea ([4]; from the first month, 10 subjects): 6 of the 10
biological effect on normal skin ([5]; 0.1% and 0.05% preparations, topical, healthy volunteers): better appearance of the skin
cases in which an irritation arose ([5]; in vivo): 10%
irritation / dermatitis caused by the retinoids ([5]; in vivo): no irritation was noted
skin coloration induced ([5]; in vivo): yellowish coloration
tolerability ([5]; in vivo): excellent
subjects left with almost no characteristic signs of seborrheic dermatitis [6]: 80%
oxidation of retinal [7]: 51.6 pmol/h/mg
effect on psoriasis plaques ([8]; 0.1% and 0.05% preparations, initial pilot study): only a modest effect
effect on the action of UVA ([8]; 0.1% and 0.05% preparations, psoriasis plaques): potentiating effect
results in the open series ([8]; 1% preparation, daily, open application, 6 cases): only one very good result was noted, with one good and four modest results
regression of the lesion score ([8]; 1% preparation, daily, 3 of the 5 cases, from the first week): more than 50%
regression of the lesion score ([8]; 1% preparation, daily, one case (good result)): 30%
regression of the lesion score ([8]; 1% preparation, daily, one case (modest result)): 10%
local reaction on the psoriasis plaque ([8]; in vivo): inflammation specifically localized on the psoriasis plaque
oxidation of retinal to retinoic acid [9]: 1.35 ± 0.4 pmol/h/mg

Cc1cn[nH]c1 [4-methylpyrazole]
effect on the production of retinoic acid from retinol [2]: not affected

Source: patent US5438073A, “Dermatological and/or cosmetological composition containing retinoids” (Pierre Fabre Cosmetique, priority 1991, dated 1995)
